Reference: patent publication US12521393B2, “Cytotoxicity targeting chimeras for CCR2-expressing cells” (GLAXOSMITHKLINE INTELLECTUAL PROPERTY DEVELOPMENT LIMITED, priority 2021, dated 2026)
Structures can show the parent of a compound that is named as a salt.

Columns and labels:
[1] = test system: endogenous target monocytes in human PBMC; experiment: PBMC ex vivo monocyte depletion flow cytometry assay (Example 200); format: cell-based; conditions: with anti-cotinine antibody (SEQ ID NO: 11/12), 18-24 hours, EC50 in molar, read-out: Ex Vivo Depletion Assay pEC50 (converted)
In short: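 Monocyte depletion is reported as pEC50, averaged or given individually across runs, and read by flow cytometry staining CD45, CD14 and CD4 with a viability dye. Compounds, diluted four-fold over 11 points from 1 mM DMSO stocks, were combined with 30 μg/mL Fc-enhanced anti-cotinine antibody and human PBMC, then incubated 18-24 h at 37° C.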

[2] = test system: CCR2 expressing cells (CD11b+Ly6c+Hi) in peripheral blood; experiment: In vivo depletion assay, flow cytometry of peripheral blood (Example 201); set-up: species or system human CCR2 knock-in mice (C57 background); conditions: hCCR2 knock-in mice, IV 0.1 mpk compound + 10 mpk anti-cotinine antibody (SEQ ID NO: 13/14), peripheral blood at 48 hr
Method: Stock solution preparation. Stock solutions of compounds of Formula (I) were prepared at 20 mg/mL and 100 mg/mL in […] for PK/PD and dose tolerability studies respectively. Stock solutions were stored at […] until further usage. on the day of experiment, the stock Solution of the compound of Formula (I) was removed from storage at […] and thawed at room temperature. Anti-cotinine antibody having a heavy chain sequence of SEC ID NO: 13 and a light chain sequence of SEQ ID NO: 14 (rabbit variable region sequence with mouse IgG2a Fc domain), if required was removed from storage at −80° C. and thawed at room temperature. Antibody vials were immediately transferred into wet ice after thawing. Compounds of Formula (I) were further diluted in DMSO as per experimental requirements.
The formulation composition was Saline: DMSI: PBS.
Saline was added based on the quantity required and then stock solution of the compound of Formula (I) prepared in DMSO, followed by addition of antibody in PBS. Formulations were incubated at room temperature for 30 minutes before administration to the mouse. DMSO was used at 1 to % (v/v) in the final formulation.
After bleeding, each mouse was sacrificed by cervical dislocation. […] Flow Cytometry Analysis:
CCR2 depletion in peripheral blood was determined by flow cytometry. Briefly, peripheral blood was collected from all animals at the end of study termination and processed. Blood samples were lysed using 1×RBC Lysis buffer and the resulting cell pellet was washed twice in FACS buffer (HBSS containing 5% FBS). Cells were subjected to Fc blocking using mouse Fc block from Biolegend (Trustain, anti-mouse CD16/32, Cat: 101319) to block non-specific binding followed by surface staining for immune markers (CD45, CD3, CD11 b, Ly6C, human CCR2). Surface staining was done for 30 minutes in ice and cells were washed twice to remove unbound antibodies. Cells were stained with 7AAD to determine viability and acquired on BD FACSVerse flow cytometer. Appropriate FMO controls and single-color controls were included in the experiment for gating and compensation respectively.
Percent depletion of CD11 b+Ly6c+Hi cells and CCR2 expression for the different treatment groups was determined.

| Structure (SMILES) | EC50 [1] | % Depletion of CCR2 expressing cells [2] |
| --- | --- | --- |
| CC(C)N(C)[C@@H]1CC[C@H](N2CC[C@H](Nc3ncnc4ccc(C(F)(F)F)cc34)C2=O)[C@H](NC(=O)C[C@H]2CC[C@H](NC(=O)CCOCCOCCOCCNC(=O)[C@H]3CC(=O)N(C)[C@@H]3c3cccnc3)CC2)C1 [Example 33, (2S,3S)-N-(2-(2-(2-(3-(((1R,4r)-4-(2-(((1R,2S,5R)-5-(Isopropyl(methyl)amino)-2-((S)-2-oxo-3-((6-(trifluoromethyl)quinazolin-4-yl)amino)pyrrolidin-1-yl)cyclohexyl)amino)-2-oxoethyl)cyclohexyl)amino)-3-oxopropoxy)ethoxy)ethoxy)ethyl)-1-methyl-5-oxo-2-(pyridin-3-yl)pyrrolidine-3-carboxamide] | 316 pM | 89% |
| CN1C(=O)C[C@H](C(=O)NCCC(=O)NCCOCCOCCC(=O)N[C@H]2CC[C@@H](C(=O)N[C@@H]3C[C@H](NC(C)(C)C)CC[C@@H]3N3CC[C@H](Nc4ncnc5ccc(C(F)(F)F)cc45)C3=O)CC2)[C@H]1c1cccnc1 [Example 51, (2S,3S)-N-(3-((2-(2-(3-(((1S,4s)-4-(((1R,2S,5R)-5-(tert-Butylamino)-2-((S)-2-oxo-3-((6-(trifluoromethyl)quinazolin-4-yl)amino)pyrrolidin-1-yl)cyclohexyl)carbamoyl)cyclohexyl)amino)-3-oxopropoxy)ethoxy)ethyl)amino)-3-oxopropyl)-1-methyl-5-oxo-2-(pyridin-3-yl)pyrrolidine-3-carboxamide] | 631 pM | 97.32% |
| CC(C)N(C)[C@@H]1CC[C@H](N2CC[C@H](Nc3ncnc4ccc(C(F)(F)F)cc34)C2=O)[C@H](NC(=O)[C@H]2CC[C@@H](NC(=O)CNC(=O)COCCOCCNC(=O)[C@H]3CC(=O)N(C)[C@@H]3c3cccnc3)CC2)C1 [Example 81, (2S,3S)-N-(2-(2-(2-((2-(((1S,4s)-4-(((1R,2S,5R)-5-(Isopropyl(methyl)amino)-2-((S)-2-oxo-3-((6-(trifluoromethyl)quinazolin-4-yl)amino)pyrrolidin-1-yl)cyclohexyl)carbamoyl)cyclohexyl)amino)-2-oxoethyl)amino)-2-oxoethoxy)ethoxy)ethyl)-1-methyl-5-oxo-2-(pyridin-3-yl)pyrrolidine-3-carboxamide] |  | 94% |
| CC(C)N(C)[C@@H]1CC[C@H](N2CC[C@H](Nc3ncnc4ccc(C(F)(F)F)cc34)C2=O)[C@H](NC(=O)[C@H]2CC[C@@H](NC(=O)COCCOCCNC(=O)CCNC(=O)[C@H]3CC(=O)N(C)[C@@H]3c3cccnc3)CC2)C1 [Example 82, (2S,3S)-N-(3-((2-(2-(2-(((1S,4s)-4-(((1R,2S,5R)-5-(Isopropyl(methyl)amino)-2-((S)-2-oxo-3-((6-(trifluoromethyl)quinazolin-4-yl)amino)pyrrolidin-1-yl)cyclohexyl)carbamoyl)cyclohexyl)amino)-2-oxoethoxy)ethoxy)ethyl)amino)-3-oxopropyl)-1-methyl-5-oxo-2-(pyridin-3-yl)pyrrolidine-3-carboxamide] | 501 pM | 94% |
| CC(C)N(C)[C@@H]1CC[C@H](N2CC[C@H](Nc3ncnc4ccc(C(F)(F)F)cc34)C2=O)[C@H](NC(=O)CCc2ccc(C3CCN(C(=O)CCCCCNC(=O)[C@H]4CC(=O)N(C)[C@@H]4c4cccnc4)CC3)cc2)C1 [Example 86, (2S,3S)-N-(6-(4-(4-(3-(((1R,2S,5R)-5-(Isopropyl(methyl)amino)-2-((S)-2-oxo-3-((6-(trifluoromethyl)quinazolin-4-yl)amino)pyrrolidin-1-yl)cyclohexyl)amino)-3-oxopropyl)phenyl)piperidin-1-yl)-6-oxohexyl)-1-methyl-5-oxo-2-(pyridin-3-yl)pyrrolidine-3-carboxamide] | 158 pM | 25.67% |
| CC(C)N(C)[C@@H]1CC[C@H](N2CC[C@H](Nc3ncnc4ccc(C(F)(F)F)cc34)C2=O)[C@H](NC(=O)C2CCN(C3CCN(CCOCCOCCNC(=O)[C@H]4CC(=O)N(C)[C@@H]4c4cccnc4)CC3)CC2)C1 [Example 90, N-((1R,2S,5R)-5-(Isopropyl(methyl)amino)-2-((S)-2-oxo-3-((6-(trifluoromethyl)quinazolin-4-yl)amino)pyrrolidin-1-yl)cyclohexyl)-1′-(2-(2-(2-((2S,3S)-1-methyl-5-oxo-2-(pyridin-3-yl)pyrrolidine-3-carboxamido)ethoxy)ethoxy)ethyl)-[1,4′-bipiperidine]-4-carboxamide] | 1580 pM | 87.57% |
| CN1C(=O)C[C@H](C(=O)NCCOCC(=O)NCCOCC(=O)N[C@H]2CC[C@@H](C(=O)N[C@@H]3C[C@H](NC(C)(C)C)CC[C@@H]3N3CC[C@H](Nc4ncnc5ccc(C(F)(F)F)cc45)C3=O)CC2)[C@H]1c1cccnc1 [Example 100, (2S,3S)-N-(2-(2-((2-(2-(((1S,4s)-4-(((1R,2S,5R)-5-(tert-Butylamino)-2-((S)-2-oxo-3-((6-(trifluoromethyl)quinazolin-4-yl)amino)pyrrolidin-1-yl)cyclohexyl)carbamoyl)cyclohexyl)amino)-2-oxoethoxy)ethyl)amino)-2-oxoethoxy)ethyl)-1-methyl-5-oxo-2-(pyridin-3-yl)pyrrolidine-3-carboxamide] | 1260 pM | 74% |
| CC(C)N(C)[C@@H]1CC[C@H](N2CC[C@H](Nc3ncnc4ccc(C(F)(F)F)cc34)C2=O)[C@H](NC(=O)CNC(=O)[C@H]2CC[C@@H](NC(=O)COCCOCCNC(=O)[C@H]3CC(=O)N(C)[C@@H]3c3cccnc3)CC2)C1 [Example 136, (2S,3S)-N-(2-(2-(2-(((1S,4R)-4-((2-(((1R,2S,5R)-5-(Isopropyl(methyl)amino)-2-((S)-2-oxo-3-((6-(trifluoromethyl)quinazolin-4-yl)amino)pyrrolidin-1-yl)cyclohexyl)amino)-2-oxoethyl)carbamoyl)cyclohexyl)amino)-2-oxoethoxy)ethoxy)ethyl)-1-methyl-5-oxo-2-(pyridin-3-yl)pyrrolidine-3-carboxamide] | 10000 pM | 88% |
| CC(C)N(C)[C@@H]1CC[C@H](N2CC[C@H](Nc3ncnc4ccc(C(F)(F)F)cc34)C2=O)[C@H](NC(=O)C2CCN(CCCCCCCCNC(=O)[C@H]3CC(=O)N(C)[C@@H]3c3cccnc3)CC2)C1 [Example 144, N-((1R,2S,5R)-5-(Isopropyl(methyl)amino)-2-((S)-2-oxo-3-((6-(trifluoromethyl)quinazolin-4-yl)amino)pyrrolidin-1-yl)cyclohexyl)-1-(8-((2S,3S)-1-methyl-5-oxo-2-(pyridin-3-yl)pyrrolidine-3-carboxamido)octyl)piperidine-4-carboxamide, 3Formic acid salt] | 501 pM | 85.67% |
| CC(C)N(C)[C@@H]1CC[C@H](N2CC[C@H](Nc3ncnc4ccc(C(F)(F)F)cc34)C2=O)[C@H](NC(=O)[C@H]2CC[C@H](N3CCN(CCCCCCCCNC(=O)[C@H]4CC(=O)N(C)[C@@H]4c4cccnc4)CC3)CC2)C1 [Example 146, (2S,3S)-N-(8-(4-((1R,4r)-4-(((1R,2S,5R)-5-(Isopropyl(methyl)amino)-2-((S)-2-oxo-3-((6-(trifluoromethyl)quinazolin-4-yl)amino)pyrrolidin-1-yl)cyclohexyl)carbamoyl)cyclohexyl)piperazin-1-yl)octyl)-1-methyl-5-oxo-2-(pyridin-3-yl)pyrrolidine-3-carboxamide] | 316 pM | 83.08% |
| CC(C)N(C)[C@@H]1CC[C@H](N2CC[C@H](Nc3ncnc4ccc(C(F)(F)F)cc34)C2=O)[C@H](NC(=O)C2CCN(CCOCCOCCOCCOCCNC(=O)[C@H]3CC(=O)N(C)[C@@H]3c3cccnc3)CC2)C1 [Example 147] | 631 pM | 77% |
| CC(C)N(C)[C@@H]1CC[C@H](N2CC[C@H](Nc3ncnc4ccc(C(F)(F)F)cc34)C2=O)[C@H](NC(=O)[C@H]2CC[C@@H](C(=O)NCCCN3CCN(CCCNC(=O)[C@H]4CC(=O)N(C)[C@@H]4c4cccnc4)CC3)CC2)C1 [Example 150, (1 s,4S)-N^1-((1R,2S,5R)-5-(Isopropyl(methyl)amino)-2-((S)-2-oxo-3-((6-(trifluoromethyl)quinazolin-4-yl)amino)pyrrolidin-1-yl)cyclohexyl)-N^4-(3-(4-(3-((2S,3S)-1-methyl-5-oxo-2-(pyridin-3-yl)pyrrolidine-3-carboxamido)propyl)piperazin-1-yl)propyl)cyclohexane-1,4-dicarboxamide] | 1000 pM | 85.52% |
